Measurements reported in paper PMC8373216, “Development and Preclinical Evaluation of New Inhaled Lipoglycopeptides for the Treatment of Persistent Pulmonary Methicillin-Resistant Staphylococcus aureus Infections” (Antimicrobial Agents and Chemotherapy, 2021).
In brackets after ≈: the same amount, converted by molar mass. Read-outs that look alike come from different tables or passages of the source.

Key:
Burkholderia cepacia = assay: Expanded panel broth microdilution MIC; type: cell-based
Haemophilus influenzae = assay: Expanded panel broth microdilution MIC; type: cell-based
S. marcescens = assay: Expanded panel broth microdilution MIC; type: cell-based; conditions: Serratia marcescens, ATCC43862
E. cloacae = assay: Expanded panel broth microdilution MIC; type: cell-based; conditions: Enterobacter cloacae
C. freundii = assay: Expanded panel broth microdilution MIC; type: cell-based; conditions: Citrobacter freundii
Moraxella catarrhalis = assay: Expanded panel broth microdilution MIC; type: cell-based
Pseudomonas aeruginosa = assay: Expanded panel broth microdilution MIC; type: cell-based
H. parainfluenzae = assay: Expanded panel broth microdilution MIC; type: cell-based; conditions: Haemophilus parainfluenzae
P. mirabilis = assay: Expanded panel broth microdilution MIC; type: cell-based; conditions: Proteus mirabilis, ATCC43071
P. vulgaris = assay: Expanded panel broth microdilution MIC; type: cell-based; conditions: Proteus vulgaris
K. pneumoniae = assay: Expanded panel broth microdilution MIC; type: cell-based
[1] = test system: Peptostreptococcus micros; assay: Expanded panel broth microdilution MIC; type: cell-based
Eggerthella lenta = assay: Expanded panel broth microdilution MIC; type: cell-based
Protease from Papain = biological target: T1, Protease from Papain (Carica papaya, UniProt P00784); assay: Enzyme hydrolysis; type: in vitro ADME; conditions: Papain 5 U/mL
T1 construct: purchased Sigma Aldrich P4762; host or cells: papaya latex
Experimental: (§1) 40 to the primary metabolite.
(§2) 41 percent degradation is defined as follows:
(§3) [LLLLPPLL ] + [MMPPPPDDMM DDMMDDPPPP ]
(§4) 45 Enzymes studied include :
(§5) 108 Table S1: Enzyme hydrolysis of RV62 and RV94 was measured as a function of time in PBS (pH 8) at 37
(§6) 109 °C. Control samples in the absence of enzyme were included as […]. Samples were analyzed
(§7) 110 by HPLC detecting the parent RV derivative (RV62 or RV94).
(§8) RV Percent RV derivative remaining in HPLC chromatograph, % […]

[2] = biological target: T2, Protease from Bacillus Lichenformis (Bacillus licheniformis, UniProt P00780); assay: Enzyme hydrolysis; type: in vitro ADME; conditions: Bacillus Lichenformis protease 5 U/mL
T2 construct: purchased Sigma Aldrich P5380; host or cells: Bacillus licheniformis
Experimental: as §1, §2, §3, §4, §5, §6, §7, §8

[3] = type: physicochemical; conditions: pH 8
Experimental: as §1, §2, §3, §4, §5, §6, §7, §8

THP-1 cells = assay: In vitro cellular accumulation; type: cell-based; conditions: 24 h, 10 to 75 μg/ml
Experimental: THP-1 cells (TIB-202; ATCC, Manassas, VA; 1 × 10^6 cells/well) were differentiated into macrophages by incubating in 10% fetal bovine serum (FBS; HyClone, Marlborough, MA) supplemented RPMI 1640 medium (HyClone) with 50 ng/ml of phorbol 12-myristate 13-acetate (PMA; Sigma-Aldrich, St. Louis, MO) for 24 h. After a 24 h incubation in fresh medium, cells were treated with RV lipoglycopeptides or comparator drugs at target concentrations in the range of 10 to 75 μg/ml and incubated at 37°C for 24 h. For sample collection, mixtures of cells and medium were transferred into a 1.5-ml microcentrifuge tube followed by centrifugation at 330 × g for 8 min at 4°C. The supernatant was collected to measure the extracellular portion. After washing three times using 1 ml of tris-buffered saline (TBS, 1× solution, pH 7.4, Fisher BioReagents, Waltham, MA), the cell pellet was resuspended in TBS to measure the cellular drug concentration. To confirm mass balance, drug concentrations were also measured from the supernatant and an organic solvent mixture (30% acetonitrile in water) that was used to extract residual drug from the empty wells after the cell mixture was removed. […] Cellular accumulation was expressed as μg of drug per the mass of cell protein measured using a Pierce BCA protein assay kit (Thermo Scientific, Waltham, MA).

T2 sequence (P00780 106-379): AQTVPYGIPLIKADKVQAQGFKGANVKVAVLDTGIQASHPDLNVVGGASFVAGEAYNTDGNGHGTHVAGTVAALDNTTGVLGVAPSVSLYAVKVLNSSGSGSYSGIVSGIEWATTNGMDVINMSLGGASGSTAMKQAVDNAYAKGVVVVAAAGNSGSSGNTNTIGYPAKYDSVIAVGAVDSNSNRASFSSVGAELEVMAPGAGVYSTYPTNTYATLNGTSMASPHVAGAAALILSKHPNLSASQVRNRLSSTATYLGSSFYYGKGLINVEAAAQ
T1 sequence (P00784 134-345): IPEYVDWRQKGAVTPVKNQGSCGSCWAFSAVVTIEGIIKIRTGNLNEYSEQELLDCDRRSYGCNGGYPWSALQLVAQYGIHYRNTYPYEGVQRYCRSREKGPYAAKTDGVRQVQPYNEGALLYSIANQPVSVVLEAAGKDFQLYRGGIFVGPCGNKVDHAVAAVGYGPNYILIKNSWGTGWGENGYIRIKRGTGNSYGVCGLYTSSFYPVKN

CCCCCCCCCCNCCN[C@@]1(C)C[C@H](O[C@H]2[C@H](Oc3c4cc5cc3Oc3ccc(cc3Cl)[C@@H](O)[C@@H](NC(=O)[C@@H](CC(C)C)NC)C(=O)N[C@@H](CC(N)=O)C(=O)N[C@H]5C(=O)N[C@H]3C(=O)N[C@H](C(=O)N[C@H](C(=O)O)c5cc(O)cc(O)c5-c5cc3ccc5O)[C@H](O)c3ccc(c(Cl)c3)O4)O[C@H](CO)[C@@H](O)[C@@H]2O)O[C@@H](C)[C@H]1O [RV40, N-decylaminoethylvancomycin]
MIC (Burkholderia cepacia): > 64 µg/mL
MIC (Burkholderia cepacia; B. cepacia MMX 9040, read-out: MIC): > 64 µg/mL
MIC range (Haemophilus influenzae): 16 to 32 µg/mL
MIC (Haemophilus influenzae; ATCC49247, H. influenzae ATCC 49247, BL-, read-out: MIC): 64 µg/mL (≈ 39.2 µM)
MIC (Haemophilus influenzae; H. influenzae MMX 7988, BL+, read-out: MIC): 32 µg/mL (≈ 19.6 µM)
MIC (S. marcescens; S. marcescens ATCC 43862, read-out: MIC): > 64 µg/mL
MIC (E. cloacae; ATCC49141, E. cloacae ATCC 49141, read-out: MIC): > 64 µg/mL
MIC (E. cloacae; ATCCBAA1143, E. cloacae ATCC BAA-1143, AmpC, read-out: MIC): > 64 µg/mL
MIC (C. freundii; C. freundii MMX 6602, read-out: MIC): > 64 µg/mL
MIC range (Moraxella catarrhalis): 1 to 2 µg/mL
MIC (Moraxella catarrhalis; ATCC8176, M. catarrhalis ATCC 8176, read-out: MIC): 1 µg/mL (≈ 0.613 µM)
MIC (Moraxella catarrhalis; ATCC8193, M. catarrhalis ATCC 8193, read-out: MIC): 32 µg/mL (≈ 19.6 µM)
MIC (Moraxella catarrhalis; M. catarrhalis MMX 3782, read-out: MIC): 1 µg/mL (≈ 0.613 µM)
MIC (Pseudomonas aeruginosa): > 64 µg/mL
MIC (Pseudomonas aeruginosa; ATCC27853, P. aeruginosa ATCC 27853, read-out: MIC): > 64 µg/mL
MIC (Pseudomonas aeruginosa; P. aeruginosa MMX 2562, MDR, read-out: MIC): > 64 µg/mL
MIC (H. parainfluenzae; H. parainfluenzae MMX 2529, read-out: MIC): 16 µg/mL (≈ 9.8 µM)
MIC (P. mirabilis; P. mirabilis ATCC 43071, read-out: MIC): > 64 µg/mL
MIC (P. vulgaris; P. vulgaris MMX 9373, read-out: MIC): > 64 µg/mL
MIC (K. pneumoniae; K. pneumoniae MMX 4679, KPC-2): > 64 µg/mL
MIC (K. pneumoniae; Klebsiella pneumoniae, K. pneumoniae MMX 2542, read-out: MIC): > 64 µg/mL
MIC ([1]; P. micros, 1 isolate): 0.06 µg/mL (≈ 0.0368 µM)
MIC ([1]; Parvimonas micra, P. micros MMX 3546, read-out: MIC): 0.06 µg/mL (≈ 0.0368 µM)

CCCCCCCCCCNCCN[C@@]1(C)C[C@H](O[C@H]2[C@H](Oc3c4cc5cc3Oc3ccc(cc3Cl)[C@@H](O)[C@@H](NC(=O)[C@@H](CC(C)C)NC)C(=O)N[C@@H](CC(N)=O)C(=O)N[C@H]5C(=O)N[C@H]3C(=O)N[C@H](C(=O)N[C@H](C(=O)O)c5cc(O)c(CNCP(=O)(O)O)c(O)c5-c5cc3ccc5O)[C@H](O)c3ccc(c(Cl)c3)O4)O[C@H](CO)[C@@H](O)[C@@H]2O)O[C@@H](C)[C@H]1O [Telavancin, telavancin]
MIC ([1]; P. micros, 1 isolate): 0.12 µg/mL (≈ 0.0684 µM)
MIC ([1]; Parvimonas micra): 0.12 µg/mL (≈ 0.0684 µM)

CN[C@H](CC(C)C)C(=O)N[C@H]1C(=O)N[C@@H](CC(N)=O)C(=O)N[C@H]2C(=O)N[C@H]3C(=O)N[C@H](C(=O)N[C@H](C(=O)O)c4cc(O)cc(O)c4-c4cc3ccc4O)[C@H](O)c3ccc(c(Cl)c3)Oc3cc2cc(c3O[C@@H]2O[C@H](CO)[C@@H](O)[C@H](O)[C@H]2O[C@H]2C[C@](C)(N)[C@H](O)[C@H](C)O2)Oc2ccc(cc2Cl)[C@H]1O [Vancomycin, vancomycin]
MIC (Burkholderia cepacia): > 64 µg/mL
MIC (Haemophilus influenzae): 64 µg/mL (≈ 44.2 µM)
MIC (Haemophilus influenzae; ATCC49247): > 64 µg/mL
MIC (S. marcescens): > 64 µg/mL
MIC (E. cloacae; ATCC49141): > 64 µg/mL
MIC (E. cloacae; ATCCBAA1143): > 64 µg/mL
MIC (C. freundii): > 64 µg/mL
MIC (Moraxella catarrhalis): 16 µg/mL (≈ 11 µM)
MIC (Moraxella catarrhalis; ATCC8176): 32 µg/mL (≈ 22.1 µM)
MIC (Moraxella catarrhalis; ATCC8193): 64 µg/mL (≈ 44.2 µM)
MIC (Pseudomonas aeruginosa): > 64 µg/mL
MIC (Pseudomonas aeruginosa; ATCC27853): > 64 µg/mL
MIC (H. parainfluenzae): 64 µg/mL (≈ 44.2 µM)
MIC (Eggerthella lenta): 0.5 µg/mL (≈ 0.345 µM)
MIC (Eggerthella lenta; ATCC43055): 0.5 µg/mL (≈ 0.345 µM)
MIC (P. mirabilis): > 64 µg/mL
MIC (P. vulgaris): > 64 µg/mL
MIC (K. pneumoniae; K. pneumoniae MMX 4679, KPC-2): > 64 µg/mL
MIC (K. pneumoniae; Klebsiella pneumoniae): > 64 µg/mL

CCCCCCCCCCNC(=O)CNC1(C)CC(OC2C(Oc3c4cc5cc3Oc3ccc(cc3Cl)C(O)C3NC(=O)C(NC(=O)C5NC(=O)C(CC(N)=O)NC(=O)C(NC(=O)C(CC(C)C)NC)C(O)c5ccc(c(Cl)c5)O4)c4ccc(O)c(c4)-c4c(O)cc(O)cc4C(C(=O)O)NC3=O)OC(CO)C(O)C2O)OC(C)C1O (stereo not drawn) [RV94]
Percent RV derivative remaining in HPLC chromatograph (Protease from Papain; 1 h): 99.39%
Percent RV derivative remaining in HPLC chromatograph (Protease from Papain; 24 h): 98.31%
Percent RV derivative remaining in HPLC chromatograph (Protease from Papain; PBS pH 8, 37 °C, 0 h): 99.46%
Percent RV derivative remaining in HPLC chromatograph ([2]; 1 h): 99.47%
Percent RV derivative remaining in HPLC chromatograph ([2]; 24 h): 99.43%
Percent RV derivative remaining in HPLC chromatograph ([2]; PBS pH 8, 37 °C, 0 h): 99.76%
Percent RV derivative remaining in HPLC chromatograph ([3]; 0 h): 99.74%
Percent RV derivative remaining in HPLC chromatograph ([3]; 1 h): 99.54%
Percent RV derivative remaining in HPLC chromatograph ([3]; 24 h): 98.89%
Cellular accumulation, fold improvement over telavancin (THP-1 cells): 4 fold
Cellular accumulation, fold improvement over vancomycin (THP-1 cells): 2 fold
MIC (Eggerthella lenta; ATCC43055, E. lenta ATCC 43055, read-out: MIC): 0.008 µg/mL (≈ 0.00486 µM)
MIC (Eggerthella lenta; E. lenta, 1 isolate, read-out: MIC): 0.008 µg/mL (≈ 0.00486 µM)
